Test results taken from patent US12065416B2, “cGAS antagonist compounds” (IMMUNESENSOR THERAPEUTICS, INC., priority 2016, dated 2024).

Tests used:
[1] = target: T1, recombinant cGAS (aa147-522) (Homo sapiens, UniProt Q8N884); test: In vitro assay for inhibition of cGAS activity (ATP consumption, Kinase Glo); type: biochemical; conditions: 37° C. 20 minutes, read-out: Activity (Inhibition of cGAS enzyme activity in vitro, IC50)
T1 construct: recombinant cGAS (aa147-522); His6-SUMO (N, cleaved yes); made in house; host or cells: E. coli BL21/pLys
T1 sequence (Q8N884 147-522): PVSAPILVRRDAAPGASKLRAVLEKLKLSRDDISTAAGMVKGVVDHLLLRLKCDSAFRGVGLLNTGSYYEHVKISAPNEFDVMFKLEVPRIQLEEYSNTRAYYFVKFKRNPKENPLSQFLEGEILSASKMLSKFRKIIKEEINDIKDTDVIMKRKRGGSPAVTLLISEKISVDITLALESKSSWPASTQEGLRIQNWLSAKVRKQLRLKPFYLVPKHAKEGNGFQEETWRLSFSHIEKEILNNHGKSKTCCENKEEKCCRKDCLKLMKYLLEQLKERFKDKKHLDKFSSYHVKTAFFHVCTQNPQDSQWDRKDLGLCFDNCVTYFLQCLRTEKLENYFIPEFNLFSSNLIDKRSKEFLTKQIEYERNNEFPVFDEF
Procedure, shortened: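 Human cGAS (aa147-522) at 1.5 ng/μL incubated with serially diluted compound at 37° C for 20 min; remaining ATP read by Kinase Glo luminescence. IC50 from percent ATP consumption plotted against log compound concentration.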

[2] = tested on: cGAS activity in THP1 cells; test: Cellular assay: ISRE-Gaussia luciferase reporter THP1 cells transfected with ISD (Interferon Stimulatory DNA); type: cell-based; conditions: Homo sapiens, THP-1; ISRE-Gaussia luciferase reporter THP1 cells transfected with 2 μg/mL ISD, 16 hours; read-out: THP1-ISD (Inhibition of cGAS activity in THP1 cells, IC50)
Experimental: (§1) A reporter THP1 cell line harboring a gene encoding Gaussia Luciferase under the control of 5 tandem repeats of interferon-stimulated response elements (ISRE) was used to test inhibition of cGAS activity by synthetic compounds in human cells. These cells were plated on 96-well plates at 0.3×10^6/well and incubated with various concentrations of compounds or DMSO for 5 min, followed by transfection of 2 μg/mL of ISD (Interferon Stimulatory DNA, a 45 bp DNA oligo) or mock transfected using lipofectamine 2000 (Life Technology) method, according to manufacturer's instructions. 16 hours later, 15 μL of the media from each well is transferred to a new plate, 50 μL of solution containing 50 mM Hepes-NaOH, 50 mM NaCl, 10 mM EDTA, 1 μM of coeleanterazine was added to each well and luminescence was measured immediately. Fold increase in luminescence compared to mock transfection is plotted against concentrations of each compound, and IC50 is calculated using Graphpad. To evaluate the specificity of a compound, the same procedure was performed except that cells were transfected with 2 μg/mL poly(I:C) or infected with Sendai Virus (SeV) at 50 Unit/mL, which are known to activate the RIG-I-MAVS pathway. A specific inhibitory compound should inhibit interferon induction by DNA but have minimal effect on poly(I:C) or Sendai virus induced interferon reporter gene expression.

RIG-I-MAVS pathway = test: Specificity assay: ISRE reporter THP1 cells infected with Sendai Virus (SeV); type: cell-based; conditions: Homo sapiens, THP-1; ISRE-Gaussia luciferase reporter THP1 cells infected with Sendai Virus (SeV) at 50 Unit/mL
Experimental: as §1

Row | Compound | IC50 [1] [nM] | IC50 [2] [nM] | IC50 (RIG-I-MAVS pathway) [nM]
1 | COc1cc(/C=C2\SC(=O)N(C)C2=O)c(Br)cc1O [Ex28] | ≤ 500 | ≤ 2500 | ≥ 10000
2 | CN1C(=O)S/C(=C\c2cc(OC(F)(F)F)c(O)cc2Br)C1=O [Ex57] | 500 to 10000 | ≤ 2500 | 2500 to 10000
3 | COc1cc(/C=C2\SC(=O)N(C)C2=O)c(Br)c(F)c1O [Ex63] | ≤ 500 | 2500 to 10000 | ≥ 10000
4 | COc1cc(/C=C2\SC(=O)N(C)C2=O)c(I)cc1O [Ex65] | ≤ 500 | 2500 to 10000 | ≥ 10000
5 | CN1C(=O)S/C(=C\c2cc(OCc3ccnc4[nH]cnc34)c(O)cc2Br)C1=O [Ex68] | ≤ 500 | ≤ 2500 | ≥ 10000
6 | O=C1/C(=C/c2cc(OC(F)(F)F)c(O)cc2Br)Sc2ncccc21 [Ex70] | 500 to 10000 | 2500 to 10000 | ≥ 10000
7 | Nc1ncncc1COc1cc(/C=C2\Sc3ncccc3C2=O)c(Br)cc1O [Ex73] | ≤ 500 | 2500 to 10000 | ≥ 10000
8 | COc1cc(/C=C2\Sc3ncccc3C2=O)c(Br)c(F)c1O [Ex75] | ≤ 500 | 2500 to 10000 | ≥ 10000
9 | CC(Oc1cc(/C=C2\SC(=O)N(C)C2=O)c(Br)cc1O)c1cncnc1N (centres unmarked) [Ex80] | ≤ 500 | 2500 to 10000 | ≥ 10000
10 | CN1C(=O)S/C(=C\c2cc(OCc3cnc(N)nc3)c(O)c(F)c2Br)C1=O [Ex81] | ≤ 500 | ≤ 2500 | ≥ 10000
11 | CN1C(=O)S/C(=C\c2cc(OCC3CCCCC3)c(O)cc2Br)C1=O [Ex86] | 500 to 10000 | 2500 to 10000 | 2500 to 10000
12 | CC(C)C(=O)N1CCC(COc2cc(/C=C3\SC(=O)N(C)C3=O)c(Br)cc2O)CC1 [Ex87] | 500 to 10000 | 2500 to 10000 | ≥ 10000
13 | CN1C(=O)S/C(=C\c2cc(OCc3cn[nH]c3)c(O)cc2Br)C1=O [Ex92] | ≤ 500 | ≤ 2500 | ≥ 10000
14 | CN1C(=O)S/C(=C\c2cc(OCc3cnc(Cl)nc3)c(O)cc2Br)C1=O [Ex93] | ≤ 500 | 2500 to 10000 | ≥ 10000
15 | Cc1nc(N)ncc1COc1cc(/C=C2\SC(=O)N(C)C2=O)c(Br)c(F)c1O [Ex108] | ≤ 500 | ≤ 2500 | ≥ 10000
16 | CC(Oc1cc(/C=C2\Sc3ncccc3C2=O)c(Br)cc1O)c1cnc(N)nc1 (centres unmarked) [Ex122] | ≤ 500 | ≤ 2500 | ≥ 10000
17 | Nc1ncc(COc2cc(/C=C3\Sc4ncccc4C3=O)c(Br)c(F)c2O)cn1 [Ex123] | ≤ 500 | ≤ 2500 | ≥ 10000
18 | CN1C(=O)S/C(=C\c2cc(OCc3ccc(N)nc3)c(O)cc2Br)C1=O [Ex131] | 500 to 10000 | 2500 to 10000 | 2500 to 10000
19 | CC(C)n1ccc(COc2cc(/C=C3\SC(=O)N(C)C3=O)c(Br)cc2O)cc1=O [Ex135] | 500 to 10000 | 2500 to 10000 | ≥ 10000
20 | CN1C(=O)S/C(=C\c2cc(OCc3cnc[nH]3)c(O)cc2Br)C1=O [Ex137] | 500 to 10000 | 2500 to 10000 | ≥ 10000
21 | CN1C(=O)S/C(=C\c2cc(OCc3ncc(N)cn3)c(O)cc2Br)C1=O [Ex139] | 500 to 10000 | 2500 to 10000 | ≥ 10000
22 | CN1C(=O)S/C(=C\c2cc(OCc3cncnc3)c(O)cc2Br)C1=O [Ex140] | ≤ 500 | ≤ 2500 | ≥ 10000
23 | CN1C(=O)S/C(=C\c2cc(OCc3cncnc3N)c(O)cc2Br)C1=O [Ex141] | ≤ 500 | ≤ 2500 | ≥ 10000

Row | Compound | IC50 [1] [nM] | IC50 [2] [nM] | IC50 (RIG-I-MAVS pathway) [nM]
24 | CN1C(=O)S/C(=C\c2cc(OCc3cnc(N)nc3)c(O)cc2Br)C1=O [Ex147] | ≤ 500 | ≤ 2500 | ≥ 10000
25 | CNc1ncc(COc2cc(/C=C3\SC(=O)N(C)C3=O)c(Br)cc2O)cn1 [Ex148] | ≤ 500 | ≤ 2500 | ≥ 10000
26 | CN1C(=O)S/C(=C\c2cc(OCc3cnc(NC4CC4)nc3)c(O)cc2Br)C1=O [Ex149] | 500 to 10000 | ≤ 2500 | ≥ 10000
27 | CN1C(=O)S/C(=C\c2cc(OCc3cnc(NCCO)nc3)c(O)c(F)c2Br)C1=O [Ex152] | ≤ 500 | ≤ 2500 | ≥ 10000
28 | COCCNc1ncc(COc2cc(/C=C3\SC(=O)N(C)C3=O)c(Br)c(F)c2O)cn1 [Ex153] | ≤ 500 | 2500 to 10000 | ≥ 10000
29 | CN1C(=O)S/C(=C\c2cc(OCc3cnc(NCc4ccccn4)nc3)c(O)cc2Br)C1=O [Ex155] | ≤ 500 | 2500 to 10000 | ≥ 10000
30 | CN1C(=O)S/C(=C\c2cc(OCc3cnc(NCc4cccnc4)nc3)c(O)cc2Br)C1=O [Ex156] | ≤ 500 | 2500 to 10000 | ≥ 10000
31 | CN1C(=O)S/C(=C\c2cc(OCc3cnc(NCc4ccncc4)nc3)c(O)cc2Br)C1=O [Ex157] | ≤ 500 | 2500 to 10000 | ≥ 10000
32 | CN1C(=O)S/C(=C\c2cc(OCc3cnc(N4CCNCC4)nc3)c(O)cc2Br)C1=O [Ex165] | ≤ 500 | 2500 to 10000 | ≥ 10000
33 | Cc1nc(N)ncc1COc1cc(/C=C2\SC(=O)N(C)C2=O)c(Br)cc1O [Ex170] | ≤ 500 | ≤ 2500 | ≥ 10000
34 | CN1C(=O)S/C(=C\c2cc(OCc3cnc(N)nc3C3CC3)c(O)cc2Br)C1=O [Ex171] | ≤ 500 | 2500 to 10000 | ≥ 10000
35 | CN1C(=O)S/C(=C\c2cc(OCc3cnc4ccccc4c3)c(O)cc2Br)C1=O [Ex177] | 500 to 10000 | 2500 to 10000 | ≥ 10000
36 | Cc1ncc(COc2cc(/C=C3\SC(=O)N(C)C3=O)c(Br)c(F)c2O)c(N)n1 [ExA5] | ≤ 500 | 2500 to 10000 | –
37 | CC(Oc1cc(/C=C2\Sc3ncccc3C2=O)c(Br)cc1O)c1cnc(NCCO)nc1 (centres unmarked) [ExA9] | ≤ 500 | 2500 to 10000 | –
38 | CN1C(=O)S/C(=C\c2cc(OCC(=O)c3cnc(N)nc3)c(O)c(F)c2Br)C1=O [ExA10] | 500 to 10000 | 2500 to 10000 | –
39 | Nc1ncc(COc2cc(/C=c3\sc4nccn4c3=O)c(Br)cc2O)cn1 [ExA11] | 500 to 10000 | ≤ 2500 | –
40 | CC(Oc1cc(/C=c2\sc3nccn3c2=O)c(Br)c(F)c1O)c1cnc(N)nc1 (centres unmarked) [ExA12] | 500 to 10000 | ≥ 10000 | –
41 | CC(Oc1cc(/C=C2\Sc3ncc(F)cc3C2=O)c(Br)c(F)c1O)c1cnc(N)nc1 (centres unmarked) [ExA13] | ≤ 500 | 2500 to 10000 | –
42 | CN1C(=O)S/C(=C\c2cc(OCc3cnc([S+](C)[O-])nc3N)c(O)c(F)c2Br)C1=O (centres unmarked) [ExA14] | ≤ 500 | ≥ 10000 | –
43 | CN1C(=O)S/C(=C\c2cc(OCc3cncnc3N)c(O)c(F)c2Br)C1=O [ExA17] | ≤ 500 | ≥ 10000 | –
44 | CC(Oc1cc(/C=C2\SC(=O)N(C)C2=O)c(Br)c(F)c1O)c1cncnc1N (centres unmarked) [ExA18] | 500 to 10000 | ≥ 10000 | –
45 | CN1C(=O)S/C(=C\c2cc(OCc3cnc(Cl)nc3N)c(O)c(F)c2Br)C1=O [ExA19] | ≤ 500 | 2500 to 10000 | –
